In test [1] the test system is Jurkat. As to the kind of experiment: Antiproliferative activity against human Jurkat cells after 48 hrs by MTT assay. It counts as functional, cell-based. A general note: Formazan colour is commonly taken as a measure of viable cells.
In test [2] the target is T1, Histone deacetylase 8 (Homo sapiens, UniProt Q9BY41).
T1 sequence (Q9BY41 whole entry): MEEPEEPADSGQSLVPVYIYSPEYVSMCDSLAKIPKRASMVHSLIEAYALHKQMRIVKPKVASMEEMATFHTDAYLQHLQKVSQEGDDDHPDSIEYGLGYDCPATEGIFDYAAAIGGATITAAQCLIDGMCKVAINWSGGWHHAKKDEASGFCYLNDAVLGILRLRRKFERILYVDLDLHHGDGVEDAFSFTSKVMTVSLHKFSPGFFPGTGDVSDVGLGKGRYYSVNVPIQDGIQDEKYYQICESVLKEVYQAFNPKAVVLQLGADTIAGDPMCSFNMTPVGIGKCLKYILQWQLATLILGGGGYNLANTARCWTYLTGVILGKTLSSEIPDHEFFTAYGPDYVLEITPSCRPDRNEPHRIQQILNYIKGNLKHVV
Nature of the test: Inhibition of HDAC8 (unknown origin) using Ac-Leu-GlyLys(Ac)-AMC as substrate preincubated for 5 mins followed by substrate addition measured after 30 mins by fluorescence assay.

Test [3] deals with HeLa. Nature of the test: cells. As to conditions: Homo sapiens, 48 h.
Test [4] deals with Histone deacetylase 1 (Homo sapiens, UniProt Q13547). Nature of the test: Inhibition of HDAC1 (unknown origin) using Ac-Leu-GlyLys(Ac)-AMC as substrate preincubated for 5 mins followed by substrate addition measured after 30 mins by fluorescence assay.
The subject of test [5] is U-937. As to the kind of experiment: Antiproliferative activity against human U937 cells after 48 hrs by MTT assay. In kind it is functional, cell-based. The note with it: U-937, 48 h.
Test [6] has as its target T2, Histone deacetylase 11 (Homo sapiens, UniProt Q96DB2).
T2 sequence (Q96DB2 whole entry): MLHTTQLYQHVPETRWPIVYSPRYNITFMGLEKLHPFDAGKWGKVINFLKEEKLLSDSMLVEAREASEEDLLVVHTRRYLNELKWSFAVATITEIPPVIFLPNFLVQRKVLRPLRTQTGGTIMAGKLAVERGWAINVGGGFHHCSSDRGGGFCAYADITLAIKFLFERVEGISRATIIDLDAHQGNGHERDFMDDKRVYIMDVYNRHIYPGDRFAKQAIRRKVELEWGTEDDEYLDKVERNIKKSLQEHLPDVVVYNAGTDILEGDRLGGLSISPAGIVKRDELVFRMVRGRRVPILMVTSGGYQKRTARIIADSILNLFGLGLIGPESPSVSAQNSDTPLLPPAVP
Nature of the test: Inhibition of HDAC11 (unknown origin) using Ac-Leu-GlyLys(Ac)-AMC as substrate preincubated for 5 mins followed by substrate addition measured after 30 mins by fluorescence assay.

The target of test [7] is Histone deacetylase. As to the kind of experiment: Inhibition of HDAC in human HeLa cell nuclear extract using Boc-Lys (acetyl)-AMC as substrate preincubated for 5 mins followed by substrate addition measured after 30 mins by fluorescence assay. It counts as protein assay.
Test [8] relates to HEL. Nature of the test: cells. As to conditions: Homo sapiens, 48 h.
Description: Antiproliferative activity against human HEL cells after 48 hrs by MTT assay
Test [9] can be described thus: Antiproliferative activity against human SK-N-BE(2) cells after 48 hrs by MTT assay. The note with it: SKNBE2, 48 h. It counts as functional, cell-based.
Test [10] concerns MOLT-4. Nature of the test: Antiproliferative activity against human MOLT4 cells after 48 hrs by MTT assay. It counts as functional, cell-based. The note with it: MOLT-4, 48 h.
Test [11] concerns the target T3, Protein deacetylase HDAC6 (Homo sapiens, UniProt Q9UBN7).
T3 sequence (Q9UBN7 whole entry): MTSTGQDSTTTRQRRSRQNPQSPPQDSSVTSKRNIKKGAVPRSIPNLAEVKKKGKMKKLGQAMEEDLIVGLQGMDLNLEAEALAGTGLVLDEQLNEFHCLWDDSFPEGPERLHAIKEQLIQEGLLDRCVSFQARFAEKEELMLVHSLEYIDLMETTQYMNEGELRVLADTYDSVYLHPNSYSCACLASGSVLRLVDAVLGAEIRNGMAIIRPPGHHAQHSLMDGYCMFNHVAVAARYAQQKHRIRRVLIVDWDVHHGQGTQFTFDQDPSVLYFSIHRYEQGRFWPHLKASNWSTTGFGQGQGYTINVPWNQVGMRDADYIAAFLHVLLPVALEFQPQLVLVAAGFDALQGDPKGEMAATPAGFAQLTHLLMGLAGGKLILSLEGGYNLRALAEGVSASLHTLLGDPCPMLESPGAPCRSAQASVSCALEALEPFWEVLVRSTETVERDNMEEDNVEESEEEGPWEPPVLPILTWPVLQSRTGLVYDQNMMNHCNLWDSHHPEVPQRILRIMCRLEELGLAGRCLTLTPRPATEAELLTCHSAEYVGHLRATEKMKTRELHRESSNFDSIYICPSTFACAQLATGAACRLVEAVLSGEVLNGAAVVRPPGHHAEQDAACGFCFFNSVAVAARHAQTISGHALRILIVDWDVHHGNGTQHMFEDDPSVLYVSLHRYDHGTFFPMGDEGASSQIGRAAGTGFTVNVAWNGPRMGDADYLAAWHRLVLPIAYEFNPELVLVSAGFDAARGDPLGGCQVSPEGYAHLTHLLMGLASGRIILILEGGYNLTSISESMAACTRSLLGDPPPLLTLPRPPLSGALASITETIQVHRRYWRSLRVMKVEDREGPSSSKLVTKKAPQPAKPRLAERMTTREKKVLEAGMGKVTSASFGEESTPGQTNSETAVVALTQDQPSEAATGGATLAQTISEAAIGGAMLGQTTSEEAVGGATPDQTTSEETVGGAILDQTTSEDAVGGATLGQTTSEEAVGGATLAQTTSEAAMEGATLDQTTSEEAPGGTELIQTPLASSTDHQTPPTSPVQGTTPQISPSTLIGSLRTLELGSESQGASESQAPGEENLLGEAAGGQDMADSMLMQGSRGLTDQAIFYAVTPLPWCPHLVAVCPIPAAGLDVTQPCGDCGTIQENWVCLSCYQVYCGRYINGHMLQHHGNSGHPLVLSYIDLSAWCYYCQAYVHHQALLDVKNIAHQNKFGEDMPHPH
Nature of the test: Inhibition of HDAC6 (unknown origin) using Ac-Leu-GlyLys(Ac)-AMC as substrate preincubated for 5 mins followed by substrate addition measured after 30 mins by fluorescence assay.

The values that follow come from ChEMBL document CHEMBL4219110, “Structure optimization and preliminary bioactivity evaluation of N-hydroxybenzamide-based HDAC inhibitors with Y-shaped cap” (Bioorg Med Chem, 2018).

The IC50 is the midpoint of a concentration-inhibition curve. Low values mean greater potency in that assay, high ones weaker potency in that assay.

Chain of Histone deacetylase 1 (Q13547 whole entry): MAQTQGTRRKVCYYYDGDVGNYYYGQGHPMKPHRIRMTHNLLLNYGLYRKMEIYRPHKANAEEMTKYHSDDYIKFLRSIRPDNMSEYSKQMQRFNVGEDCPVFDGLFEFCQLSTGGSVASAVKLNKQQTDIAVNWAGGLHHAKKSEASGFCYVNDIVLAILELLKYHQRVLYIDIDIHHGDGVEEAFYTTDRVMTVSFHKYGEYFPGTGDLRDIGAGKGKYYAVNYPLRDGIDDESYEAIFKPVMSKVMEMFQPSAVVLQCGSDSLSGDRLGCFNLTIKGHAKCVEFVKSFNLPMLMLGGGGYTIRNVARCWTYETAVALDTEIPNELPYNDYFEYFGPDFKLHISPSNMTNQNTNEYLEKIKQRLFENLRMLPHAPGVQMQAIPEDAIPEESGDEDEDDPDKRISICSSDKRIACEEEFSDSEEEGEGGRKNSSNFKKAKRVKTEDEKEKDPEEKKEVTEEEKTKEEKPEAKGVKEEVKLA

With `O=C(/C=C/c1ccc(C(=O)NO)cc1)N[C@@H](Cc1c[nH]c2ccccc12)C(=O)Nc1ccc(Br)cc1`, the IC50 in test [1] came to 780 nM; in test [2] it was 354 nM; in test [3], 1200 nM; in test [4], 45.3 nM; in [5], 510 nM; in test [6] it was 176 nM. The 50% inhibitory concentration (IC50) in test [7] was found to be 2 nM; in [8] it was 440 nM; in test [9], 620 nM; in [10], 470 nM; in test [11], 127 nM.

In the case of `CC(C)CNC(=O)[C@H](Cc1c[nH]c2ccccc12)NC(=O)/C=C/c1ccc(C(=O)NO)cc1`, the half-maximal inhibitory concentration (IC50) in test [7] came to 311.9 nM.

For the compound `O=C(/C=C/c1ccc(C(=O)NO)cc1)N[C@@H](Cc1c[nH]c2ccccc12)C(=O)Nc1cccc(Cl)c1`, the IC50 in test [1] was found to be 400 nM; in test [2], 132 nM; in [3], 1660 nM; in test [4] it was 22.9 nM; in test [5], 660 nM; in test [6] it was 76.3 nM. The IC50 in test [7] was found to be 8.1 nM; in test [8], 490 nM; in test [9], 600 nM; in test [10] it was 670 nM; in test [11] it was 51.6 nM.

`O=C(/C=C/c1ccc(C(=O)NO)cc1)N[C@@H](Cc1c[nH]c2ccccc12)C(=O)NC1CC1`: in test [7], the half-maximal inhibitory concentration (IC50) turned out to be 268.9 nM.

As for `COc1ccc(NC(=O)[C@H](Cc2c[nH]c3ccccc23)NC(=O)/C=C/c2ccc(C(=O)NO)cc2)cc1`, the IC50 in test [7] came out at 35.8 nM.

In turn, `CCCCNC(=O)[C@H](Cc1c[nH]c2ccccc12)NC(=O)/C=C/c1ccc(C(=O)NO)cc1` came in with a half-maximal inhibitory concentration (IC50) in test [7] of 84.8 nM.

`CC(C)(C)NC(=O)[C@H](Cc1c[nH]c2ccccc12)NC(=O)/C=C/c1ccc(C(=O)NO)cc1`: the IC50 in test [7] was 165.5 nM.

The compound `O=C(/C=C/c1ccc(C(=O)NO)cc1)N[C@@H](Cc1c[nH]c2ccccc12)C(=O)Nc1ccncc1` yielded a half-maximal inhibitory concentration (IC50) in test [7] of 36.9 nM.

Consider `O=C(CCCCCCC(=O)Nc1ccccc1)NO` [VORINOSTAT], for which the IC50 in [3] stood at 1840 nM; in test [8], 790 nM.

Consider `CCNC(=O)[C@H](Cc1c[nH]c2ccccc12)NC(=O)/C=C/c1ccc(C(=O)NO)cc1`, for which the half-maximal inhibitory concentration (IC50) in test [7] is reported as 112.1 nM.

`Cc1ccc(NC(=O)[C@H](Cc2c[nH]c3ccccc23)NC(=O)/C=C/c2ccc(C(=O)NO)cc2)cc1` gave an IC50 in test [7] of 22.5 nM.

In turn, `Cc1cc(C)c(NC(=O)[C@H](Cc2c[nH]c3ccccc23)NC(=O)/C=C/c2ccc(C(=O)NO)cc2)c(C)c1` yielded a concentration for half-maximal inhibition (IC50) in test [7] of 22.2 nM.

Regarding `O=C(/C=C/c1ccc(C(=O)NO)cc1)N[C@@H](Cc1c[nH]c2ccccc12)C(=O)Nc1ccc(I)cc1`, the IC50 in [7] turned out to be 29.5 nM.

`O=C(/C=C/c1ccc(C(=O)NO)cc1)N[C@@H](Cc1c[nH]c2ccccc12)C(=O)Nc1cccc2ccccc12` came in with an IC50 in test [7] of 59.5 nM.

In test [7], `O=C(/C=C/c1ccc(C(=O)NO)cc1)N[C@@H](Cc1c[nH]c2ccccc12)C(=O)Nc1ccccc1Cl` displayed an IC50 of 57.1 nM.

Take `O=C(/C=C/c1ccc(C(=O)NO)cc1)N[C@@H](Cc1c[nH]c2ccccc12)C(=O)Nc1ccc(Cl)cc1`: the concentration for half-maximal inhibition (IC50) came to 2680 nM in [1]; 47.3 nM in test [2]; 1450 nM in test [3]; 54.7 nM in test [4]; 930 nM in test [5]; 15.8 nM in [6]. For the same compound, the IC50 in test [7] was determined as 5.7 nM; in [8] it was 1150 nM; in test [9] it was 1590 nM; in test [10] it was 680 nM; in [11] it was 12.6 nM.

The compound `O=C(/C=C/c1ccc(C(=O)NO)cc1)N[C@@H](Cc1c[nH]c2ccccc12)C(=O)Nc1ccccc1` yielded a concentration for half-maximal inhibition (IC50) in test [7] of 7.6 nM.

`O=C(/C=C/c1ccc(C(=O)NO)cc1)N[C@@H](Cc1c[nH]c2ccccc12)C(=O)NCc1ccccc1`: the half-maximal inhibitory concentration (IC50) in [7] was 37.3 nM.

With `O=C(/C=C/c1ccc(C(=O)NO)cc1)N[C@@H](Cc1c[nH]c2ccccc12)C(=O)Nc1ccc(F)cc1`, the IC50 in test [1] is 980 nM; in test [3], 1570 nM; in [5], 630 nM; in test [7] it was 2 nM; in [8] it was 990 nM; in test [9], 1320 nM. For the same compound, in test [10], it took 840 nM to reach half-maximal inhibition (IC50).

In test [7], `O=C(/C=C/c1ccc(C(=O)NO)cc1)N[C@@H](Cc1c[nH]c2ccccc12)C(=O)NC1CCCC1` came in with an IC50 of 249.1 nM.

`O=C(/C=C/c1ccc(C(=O)NO)cc1)N[C@@H](Cc1c[nH]c2ccccc12)C(=O)NCCc1ccccc1` yielded an IC50 in [7] of 21.8 nM.
